The record followed here is patent US20150307520A1, “NOVEL HETEROARYL AND HETEROCYCLE COMPOUNDS, COMPOSITIONS AND METHODS THEREOF” (HUTCHISON MEDIPHARMA LIMITED, priority 2012, published 2015).

The structures appear in SMILES notation.

What all share (format): biochemical
One test has as its target p110α/p85α (Homo sapiens, UniProt P42336). Briefly: Transcreener KINASE Assay, kinase inhibition of p110α/p85α. The conditions noted are these: 1 uM test compound. On the procedure:
PI3K kinases including p110α/p85α, p110δ/p85α and p110γ are purchased from Invitrogen, and p110β/p85α is from Millipore.
Primary screening data and IC50 values are measured using Transcreener™ KINASE Assay (Bellbrook, Catalog #3003-10K). […] It is a universal, homogenous, high throughput screening (HTS) technology using a far-red, competitive fluorescence polarization immunoassay based on the detection of ADP to monitor the activity of enzymes that catalyze group transfer reactions. Briefly, the Transcreener KINASE Assay is designed as a simple two-part, endpoint assay.
In the first step, the 25 ul kinase reaction is performed by preparing a reaction mixture containing 5 ul test compound (2% DMSO final concentration), 10 ul kinase, buffer (50 mM HEPES, 100 mM NaCl, 1 mM EGTA, 0.03% CHAPS, 3 mM MgCl2, and freshly supplemented 1 mM DTT), and 10 ul 30 uM PIP2/10 uM ATP. The plate is sealed and incubated for 80 min at room temperature. Next, 25 ul ADP detection mix is added per well. The plate is sealed again and incubated for 60 min at room temperature, and then measure fluorescence polarization by Tecan Infinite F500 Reader.
Data is analyzed and IC50s are generated using the add-in software for Microsoft Excel, Xlfit™ (version 2.0). IH %=(ADP amount under 2% DMSO-ADP amount under test compound)/ADP amount under 2% DMSO.

The target of a further test is p110β/p85α (Homo sapiens, UniProt P42338). Briefly: Transcreener KINASE Assay, kinase inhibition of p110β/p85α. To be noted: for PI3Kβ IH % @ 1 uM: 1 uM test compound; for IC50: read-out: PI3Kβ IC50. Summed up: (§1)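 Steps: compound (2% DMSO final) plus enzyme in HEPES/NaCl/EGTA/CHAPS/3 mM MgCl2/1 mM DTT buffer; start with PIP2/ATP addition (30 uM/10 uM solution); 80 min RT; add ADP detection mix, 60 min RT; read fluorescence polarization.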

The target in a further test is p110δ/p85α (Homo sapiens, UniProt O00329). Briefly: Transcreener KINASE Assay, kinase inhibition of p110δ/p85α. To be noted: for PI3Kδ IH % @ 1 uM: 1 uM test compound; for IC50: read-out: PI3Kδ IC50. Summed up:
as §1

The target of the next test is p110γ (Homo sapiens, UniProt P48736). Briefly: Transcreener KINASE Assay, kinase inhibition of p110γ. To be noted: for PI3Kγ IH % @ 1 uM: 1 uM test compound; for IC50: read-out: PI3Kγ IC50. Summed up: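 ADP-detecting fluorescence polarization immunoassay run as two-step endpoint: kinase reaction for 80 min, detection for 60 min, both at room temperature. Enzymes are recombinant p110 isoforms with p85α, except p110γ. IC50s derived from fitted inhibition curves.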
Sequence of p110γ (P48736 whole entry, canonical isoform): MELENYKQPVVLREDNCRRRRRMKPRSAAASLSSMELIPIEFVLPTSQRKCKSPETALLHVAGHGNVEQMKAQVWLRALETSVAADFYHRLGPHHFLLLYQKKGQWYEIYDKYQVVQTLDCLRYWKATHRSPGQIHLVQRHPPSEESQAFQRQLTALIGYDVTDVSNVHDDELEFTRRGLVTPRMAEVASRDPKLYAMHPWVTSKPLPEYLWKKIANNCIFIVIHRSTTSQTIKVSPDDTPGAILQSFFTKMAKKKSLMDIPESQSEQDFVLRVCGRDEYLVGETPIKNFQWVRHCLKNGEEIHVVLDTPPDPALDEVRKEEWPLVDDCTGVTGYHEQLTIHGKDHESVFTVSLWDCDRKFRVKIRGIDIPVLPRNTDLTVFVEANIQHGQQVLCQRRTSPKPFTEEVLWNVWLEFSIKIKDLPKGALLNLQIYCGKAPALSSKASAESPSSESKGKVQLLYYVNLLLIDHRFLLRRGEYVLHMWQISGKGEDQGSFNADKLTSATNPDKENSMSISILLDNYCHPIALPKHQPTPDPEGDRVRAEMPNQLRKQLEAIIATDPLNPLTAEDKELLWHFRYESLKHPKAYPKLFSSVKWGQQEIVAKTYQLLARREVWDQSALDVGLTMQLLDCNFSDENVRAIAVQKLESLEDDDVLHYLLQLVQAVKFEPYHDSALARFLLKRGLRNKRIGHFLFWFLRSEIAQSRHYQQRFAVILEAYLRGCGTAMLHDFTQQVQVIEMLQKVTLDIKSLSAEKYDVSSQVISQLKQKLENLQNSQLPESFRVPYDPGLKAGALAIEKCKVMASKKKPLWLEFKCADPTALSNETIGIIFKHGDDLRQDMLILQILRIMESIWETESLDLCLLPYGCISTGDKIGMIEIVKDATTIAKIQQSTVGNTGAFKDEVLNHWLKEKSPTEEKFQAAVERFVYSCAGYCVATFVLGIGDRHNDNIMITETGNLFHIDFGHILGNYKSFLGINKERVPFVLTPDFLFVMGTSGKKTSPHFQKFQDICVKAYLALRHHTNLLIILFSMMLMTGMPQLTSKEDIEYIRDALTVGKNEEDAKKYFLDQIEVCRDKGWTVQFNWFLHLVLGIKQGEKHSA

Sequence of p110α/p85α (P42336 whole entry): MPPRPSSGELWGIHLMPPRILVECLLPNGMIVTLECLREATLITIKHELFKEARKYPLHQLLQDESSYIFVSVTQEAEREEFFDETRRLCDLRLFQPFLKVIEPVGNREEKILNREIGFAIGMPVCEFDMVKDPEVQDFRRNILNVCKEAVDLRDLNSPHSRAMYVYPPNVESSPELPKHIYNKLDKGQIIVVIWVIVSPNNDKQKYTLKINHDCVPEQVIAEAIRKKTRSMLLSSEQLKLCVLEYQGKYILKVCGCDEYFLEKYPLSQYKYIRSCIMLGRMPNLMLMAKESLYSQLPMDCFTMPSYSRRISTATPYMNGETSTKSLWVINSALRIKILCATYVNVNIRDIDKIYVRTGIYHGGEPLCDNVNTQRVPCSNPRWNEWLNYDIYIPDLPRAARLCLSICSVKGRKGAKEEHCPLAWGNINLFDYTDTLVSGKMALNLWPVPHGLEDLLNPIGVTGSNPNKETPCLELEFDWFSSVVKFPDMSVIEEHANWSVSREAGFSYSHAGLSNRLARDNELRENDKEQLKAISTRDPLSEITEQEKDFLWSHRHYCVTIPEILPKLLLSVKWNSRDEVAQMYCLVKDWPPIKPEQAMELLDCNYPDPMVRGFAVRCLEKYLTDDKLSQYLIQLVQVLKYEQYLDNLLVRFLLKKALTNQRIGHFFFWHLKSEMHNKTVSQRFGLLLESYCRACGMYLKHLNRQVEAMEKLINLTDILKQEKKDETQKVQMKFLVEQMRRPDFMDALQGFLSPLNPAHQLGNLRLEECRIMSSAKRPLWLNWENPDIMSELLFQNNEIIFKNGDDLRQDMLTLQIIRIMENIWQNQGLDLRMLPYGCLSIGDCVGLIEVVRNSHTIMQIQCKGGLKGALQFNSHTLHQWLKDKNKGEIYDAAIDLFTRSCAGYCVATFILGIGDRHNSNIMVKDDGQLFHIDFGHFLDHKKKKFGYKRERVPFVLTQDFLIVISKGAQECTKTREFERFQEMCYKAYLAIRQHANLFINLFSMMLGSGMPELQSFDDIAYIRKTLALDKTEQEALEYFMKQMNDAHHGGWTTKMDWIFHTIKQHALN
Sequence of p110α/p85α (P27986 whole entry partner): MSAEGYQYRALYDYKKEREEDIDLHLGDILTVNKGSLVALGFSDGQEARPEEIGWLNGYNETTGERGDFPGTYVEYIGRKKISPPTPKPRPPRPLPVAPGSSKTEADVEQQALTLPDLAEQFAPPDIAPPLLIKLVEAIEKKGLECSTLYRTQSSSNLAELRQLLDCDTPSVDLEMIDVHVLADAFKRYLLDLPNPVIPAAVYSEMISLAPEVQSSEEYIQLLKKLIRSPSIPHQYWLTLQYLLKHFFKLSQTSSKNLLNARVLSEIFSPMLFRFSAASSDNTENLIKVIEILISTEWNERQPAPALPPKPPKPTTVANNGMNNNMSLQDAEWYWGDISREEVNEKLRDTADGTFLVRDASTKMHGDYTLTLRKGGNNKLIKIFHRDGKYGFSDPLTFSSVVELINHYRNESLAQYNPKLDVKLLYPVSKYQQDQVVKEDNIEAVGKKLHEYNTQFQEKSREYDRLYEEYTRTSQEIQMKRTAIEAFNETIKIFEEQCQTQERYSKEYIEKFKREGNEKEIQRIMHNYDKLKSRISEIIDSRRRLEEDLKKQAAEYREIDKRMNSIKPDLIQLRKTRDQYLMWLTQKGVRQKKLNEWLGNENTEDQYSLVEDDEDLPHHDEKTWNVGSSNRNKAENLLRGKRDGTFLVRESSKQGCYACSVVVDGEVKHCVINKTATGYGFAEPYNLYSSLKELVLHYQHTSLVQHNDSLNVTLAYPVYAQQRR
Sequence of p110δ/p85α (O00329 whole entry): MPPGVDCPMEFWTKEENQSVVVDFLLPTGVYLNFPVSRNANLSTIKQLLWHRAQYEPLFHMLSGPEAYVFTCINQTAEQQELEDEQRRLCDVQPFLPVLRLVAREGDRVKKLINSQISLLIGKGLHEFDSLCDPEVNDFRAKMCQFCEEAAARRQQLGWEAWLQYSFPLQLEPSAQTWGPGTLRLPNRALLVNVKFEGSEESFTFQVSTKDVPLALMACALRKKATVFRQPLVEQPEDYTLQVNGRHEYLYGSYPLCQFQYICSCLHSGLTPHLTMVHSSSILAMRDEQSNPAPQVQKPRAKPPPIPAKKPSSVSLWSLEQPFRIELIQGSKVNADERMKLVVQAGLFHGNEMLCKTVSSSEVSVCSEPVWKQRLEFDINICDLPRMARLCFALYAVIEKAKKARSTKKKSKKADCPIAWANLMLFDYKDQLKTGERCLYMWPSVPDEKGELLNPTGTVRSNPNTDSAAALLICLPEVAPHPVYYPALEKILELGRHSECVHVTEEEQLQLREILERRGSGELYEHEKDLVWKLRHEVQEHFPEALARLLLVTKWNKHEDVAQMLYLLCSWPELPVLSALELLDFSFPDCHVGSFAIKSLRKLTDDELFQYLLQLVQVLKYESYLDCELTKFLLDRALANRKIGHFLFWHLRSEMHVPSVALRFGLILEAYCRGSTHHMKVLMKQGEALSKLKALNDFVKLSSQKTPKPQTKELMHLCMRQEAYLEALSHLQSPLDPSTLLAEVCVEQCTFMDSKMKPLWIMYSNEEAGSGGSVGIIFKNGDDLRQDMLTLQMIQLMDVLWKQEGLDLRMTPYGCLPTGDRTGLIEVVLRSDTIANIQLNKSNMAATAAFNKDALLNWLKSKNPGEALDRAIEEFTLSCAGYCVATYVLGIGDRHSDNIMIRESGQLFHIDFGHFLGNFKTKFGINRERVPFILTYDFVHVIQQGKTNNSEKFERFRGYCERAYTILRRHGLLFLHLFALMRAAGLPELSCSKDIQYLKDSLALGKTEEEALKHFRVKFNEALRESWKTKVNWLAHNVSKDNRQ
Sequence of p110δ/p85α (P27986 whole entry partner): as the sequence (P27986 whole entry partner) above

As usually defined, the IC50 is the concentration at which inhibition is half-maximal. `N#Cc1c[nH]c2ncnc(N3CC[C@H]3c3nn4ccc(Cl)c4c(=O)n3-c3ccccc3)c12` [Compound 28]: on p110α/p85α, the “PI3Kα IH % @ 1 uM” value is on record as −0.3%. The “PI3Kβ IH % @ 1 uM” value on p110β/p85α is reported as 49.9%. Also, on p110δ/p85α, the “PI3Kδ IH % @ 1 uM” value is over 100% and the 50% inhibitory concentration (IC50) is 0.014 µM. Also, on p110γ, the “PI3Kγ IH % @ 1 uM” value was determined as 92.2% and the concentration for half-maximal inhibition (IC50) was determined as 0.032 µM.
For the compound `O=c1c2c(Cl)ccn2nc([C@@H]2CCN2c2ncnc3[nH]cnc23)n1-c1ccccc1` [Compound 29], the “PI3Kα IH % @ 1 uM” value on p110α/p85α is on record as −1.5%. In addition, the “PI3Kβ IH % @ 1 uM” value at p110β/p85α came to 18.5%. At p110δ/p85α, the “PI3Kδ IH % @ 1 uM” value is over 100% and the IC50 came out at 0.084 µM. In addition, the “PI3Kγ IH % @ 1 uM” value at p110γ was determined as 72.5%.
As for `Nc1ncnc(N2CC[C@H]2c2nn3ccc(Cl)c3c(=O)n2-c2ccccc2)c1Cl` [Compound 30], the “PI3Kα IH % @ 1 uM” value at p110α/p85α is −20.5%. Besides, the “PI3Kβ IH % @ 1 uM” value on p110β/p85α was 51.3%. Also, on p110δ/p85α, the “PI3Kδ IH % @ 1 uM” value is over 100% and the IC50 stood at 0.009 µM. For the same compound, at p110γ, the “PI3Kγ IH % @ 1 uM” value came out at 74.1% and the 50% inhibitory concentration (IC50) was 0.094 µM.
With `N#Cc1c(N)ncnc1N1CC[C@H]1c1nn2ccc(Cl)c2c(=O)n1-c1ccccc1` [Compound 31], at p110α/p85α, the “PI3Kα IH % @ 1 uM” value is −17.7%. In addition, at p110β/p85α, the “PI3Kβ IH % @ 1 uM” value is reported as 35.3%. Also, on p110δ/p85α, the “PI3Kδ IH % @ 1 uM” value is over 100% and the IC50 was found to be 0.016 µM. In addition, on p110γ, the “PI3Kγ IH % @ 1 uM” value is given as 81.5% and the IC50 stood at 0.153 µM.
Turning to `N#Cc1c(N)ncnc1N1CCC[C@H]1c1nn2ccc(Cl)c2c(=O)n1-c1ccccc1` [Compound 32], the “PI3Kα IH % @ 1 uM” value on p110α/p85α is 54.5%. At p110β/p85α, the “PI3Kβ IH % @ 1 uM” value came out at 96.7% and the IC50 stood at 0.013 µM. Further, on p110δ/p85α, the “PI3Kδ IH % @ 1 uM” value was over 100% and the IC50 amounted to 0.001 µM. In addition, on p110γ, the “PI3Kγ IH % @ 1 uM” value came to 94.8% and the IC50 is 0.008 µM.
`COc1cccc(-n2c([C@@H]3CCN3c3ncnc4[nH]cc(C#N)c34)nn3ccc(Cl)c3c2=O)c1` [Compound 34]: the “PI3Kα IH % @ 1 uM” value on p110α/p85α was −2.5%. The “PI3Kβ IH % @ 1 uM” value at p110β/p85α is 12.4%. For the same compound, at p110δ/p85α, the “PI3Kδ IH % @ 1 uM” value amounted to 96.8% and the half-maximal inhibitory concentration (IC50) is 0.029 µM. On p110γ, the “PI3Kγ IH % @ 1 uM” value came out at 84.6% and the IC50 was 0.203 µM.
`COc1cccc(-n2c([C@@H]3CCN3c3ncnc(N)c3C#N)nn3ccc(Cl)c3c2=O)c1` [Compound 35]: at p110α/p85α, the “PI3Kα IH % @ 1 uM” value is −6.6%. Moreover, the “PI3Kβ IH % @ 1 uM” value on p110β/p85α was 24.7%. In addition, on p110δ/p85α, the “PI3Kδ IH % @ 1 uM” value worked out at 94.1% and the IC50 turned out to be 0.057 µM. On p110γ, the “PI3Kγ IH % @ 1 uM” value is recorded as 61.2%.
Turning to `COc1cccc(-n2c([C@@H]3CCCN3c3ncnc4[nH]cnc34)nn3ccc(Cl)c3c2=O)c1` [Compound 36], at p110α/p85α, the “PI3Kα IH % @ 1 uM” value came out at 6.4%. In addition, on p110β/p85α, the “PI3Kβ IH % @ 1 uM” value was 60.9%. Moreover, the “PI3Kδ IH % @ 1 uM” value on p110δ/p85α stood at 99.1%. For the same compound, on p110γ, the “PI3Kγ IH % @ 1 uM” value was found to be 90.8% and the IC50 was 0.035 µM.
`O=c1c2c(Cl)ccn2nc([C@@H]2CCCN2c2ncnc3[nH]cnc23)n1-c1cccc(F)c1` [Compound 38]: at p110α/p85α, the “PI3Kα IH % @ 1 uM” value is listed as −3.3%. Also, the “PI3Kβ IH % @ 1 uM” value at p110β/p85α worked out at 54.8%. For the same compound, the 50% inhibitory concentration (IC50) at p110δ/p85α worked out at 0.003 µM. Besides, the “PI3Kγ IH % @ 1 uM” value at p110γ amounted to 93.5%.
On to `Cc1ccn2nc([C@@H]3CCCN3c3ncnc4[nH]cc(C#N)c34)n(-c3ccccc3)c(=O)c12` [Compound 42], for which the “PI3Kα IH % @ 1 uM” value on p110α/p85α worked out at 71.8%. Also, on p110β/p85α, the “PI3Kβ IH % @ 1 uM” value was determined as 79.8% and the half-inhibitory concentration (IC50) is 0.186 µM. Also, the “PI3Kδ IH % @ 1 uM” value on p110δ/p85α is given as over 100%. Besides, at p110γ, the “PI3Kγ IH % @ 1 uM” value is 91.2% and the half-inhibitory concentration (IC50) worked out at 0.005 µM.
Turning to `Cc1ccn2nc([C@@H]3CCCN3c3ncnc4[nH]cnc34)n(-c3ccccc3)c(=O)c12` [Compound 43], on p110α/p85α, the “PI3Kα IH % @ 1 uM” value stood at 35.1%. In addition, the “PI3Kβ IH % @ 1 uM” value at p110β/p85α worked out at 66.0%. In addition, on p110δ/p85α, the “PI3Kδ IH % @ 1 uM” value was over 100% and the IC50 was 0.002 µM. Further, at p110γ, the “PI3Kγ IH % @ 1 uM” value stood at 96.6% and the half-inhibitory concentration (IC50) came to 0.019 µM.
